Legend:
[1] = system: DNB aptamer (RNA, aptamer) GGUGCCUUAUUCCGGACGCCGGGCCCGAAUGCUGCUACGGCAGUCGAAGACAACAUCGCGCCCUUCGGAGGCACC; assay: fluorescence increase titration; conditions: 125 mM KCl, 5 mM MgCl2; 20 mM Hepes pH 7.4, 25°C; probe 100 nM
[2] = system: clone 5 (RNA, aptamer) GGAGCUCAGCCUUCACUGCGGUUGCCCUCCGUGCUUCAUGCUUCCCUGCUUCGGCAGUCGCGGUAAACCGUAGAGAAAGUUGAGGCACCACGGUCGGAUCCAC; assay: fluorescence increase titration; conditions: 125 mM KCl, 5 mM MgCl2; 20 mM Hepes pH 7.4, 25°C; probe 1 µM
[3] = system: wt-DNB aptamer (RNA, aptamer) GGAGCUCAGCCUUCACUGCCUUAUUCCGGACGCCGGGCCCGAAUGCUGCUACGGCAGUCGAAGACAACAUCGCGCCCUUCGGAGGCACCACGGUCGGAUCCAC; assay: fluorescence increase titration; conditions: 125 mM KCl, 5 mM MgCl2; 20 mM Hepes pH 7.4, 25°C; probe 100 nM
[4] = system: DNB aptamer (RNA, aptamer) GGUGCCUUAUUCCGGACGCCGGGCCCGAAUGCUGCUACGGCAGUCGAAGACAACAUCGCGCCCUUCGGAGGCACC; assay: fluorescence competition; conditions: 125 mM KCl, 5 mM MgCl2; 20 mM Hepes pH 7.4; displaces SR-DN (1 μM) from DNB (100 nM); calculated from IC50

KD [1] [µM] | KD [2] [µM] | KD [3] [µM] | KD [4] [µM] | Compound
0.80 ± 0.10 | 20.1 ± 3.9 | 1.44 ± 0.08 | – | CCN(CC)c1ccc2c(-c3ccc(S(=O)(=O)NCCOCCOCCNc4ccc([N+](=O)[O-])cc4[N+](=O)[O-])cc3S(=O)(=O)[O-])c3ccc(=[N+](CC)CC)cc-3oc2c1
0.35 ± 0.05 | 7.77 ± 0.9 | – | – | CN(C)c1ccc2c(-c3ccc(C(=O)NCCOCCOCCNc4ccc([N+](=O)[O-])cc4[N+](=O)[O-])cc3C(=O)[O-])c3ccc(=[N+](C)C)cc-3oc2c1
4.48 ± 0.60 | – | – | – | N=c1ccc2c(-c3ccc(C(=O)NCCOCCOCCNc4ccc([N+](=O)[O-])cc4[N+](=O)[O-])cc3C(=O)O)c3ccc(N)cc3oc-2c1
– | – | – | 0.1 ± 0.014 | NCCOCCOCCNc1ccc([N+](=O)[O-])cc1[N+](=O)[O-]
8.55 ± 0.53 | 27.2 ± 3.2 | – | – | O=C(NCCOCCOCCNc1ccc([N+](=O)[O-])cc1[N+](=O)[O-])c1ccc(-c2c3ccc(=O)cc-3oc3cc(O)ccc23)c(C(=O)O)c1
18.0 ± 1.8 | 52.6 ± 17.8 | – | – | O=[N+]([O-])c1ccc(NCCOCCOCCNS(=O)(=O)c2ccc(C3=c4cc5c6c(c4Oc4c3cc3c7c4CCCN7CCC3)CCC[N+]=6CCC5)c(S(=O)(=O)[O-])c2)c([N+](=O)[O-])c1

Reference: article PMC4666381 (2015)
